Data from US10139420B2, “Methods for treating vaso-occlusive crisis using non-modified annexin V” (ISNERM (Institut National de la Sante et de la Recherche …, priority 2011, dated 2018).
“Also recorded” adds a separate entry of the source.

Tests used:
[1] = test system: wild type mouse erythrocytes; assay: Echinocyte conversion and MP shedding by isolated erythrocytes (LORCA ektacytometer, microscopy, FACS), wild type; format: cell-based; settings: for increase in MP shedding in wild type erythrocytes: peptides 25 μM, versus control peptides
Description: (§1) Mouse blood was obtained through retro-orbital sinus puncture, mixed with anti-coagulant heparin buffer (5 UI/ml), and collected on citrated tubes. Blood diluted 1:1 with PBS (Gibco-Life Sciences) was placed onto histopaque-1083 (Sigma) density gradients for centrifugation (600 g, 25 minutes). Erythrocyte pellets were resuspended, washed in DMEM and stored for up to 4 hours at room temperature. Erythrocyte surface CD47 expression was assessed by FACS. Fresh RBC were washed and blocked with PBS-BSA 5% for 30 min and immunoreacted with mouse-specific fluoroisothiocyanate (FITC)-coupled anti-CD47 monoclonal antibody (clone mIAP301; BD Biosciences, Le Pont de Claix, France), or matched irrelevant IgG2aκ isotype for 45 min in 2% PBS-BSA. Erythrocytes were washed in PBS-BSA 2% prior to FACS analysis. Erythrocyte phenotypes were analyzed by […] electronic microscopy. Briefly, mouse erythrocytes were fixed with glutaraldehyde 1% and paraformaldehyde 4%, dehydrated and embedded in Epon™ epoxy resin. Sections contrasted with uranyl acetate and lead citrate were examined with a JEOL JEM 1010 microscope. Average apparent spicule number was determined by direct counting in 80 to 120 cells per condition.
(§2) To trigger MP shedding, erythrocyte were suspended in polyvinylpyrrolidone (31 mPa.s) and placed in a rotating type LORCA ektacytometer (R&R Mechatronics, Hoorn, The
(§3) Netherlands) in the absence or presence of TSP1 (25 μg/ml), or TSP1-derived peptides 4N1-1 or 4N1-2 (25 μM). Shear rate was applied according to the builder's program (1500 s^−1; 2.5 minutes). Erythrocytes were immediately separated and supernatant PS^+ MP quantified by FACS. Concentrated MP stocks were generated from 10 to 20 ml of supernatant from erythrocytes suspended in RPMI-1640 (4.10^6/ml) and treated with 4N1-1. Suspensions were centrifuged at 400 g for 15 min to discard cells, and ultracentrifuged at 20500 g for 45 min to pellet MP, which were resuspended in filtered (0.2 μm) DMEM and stored at −80° C. MP concentrations were determined as previously described (20). Briefly, MP were labeled with 2 μl FITC-conjugated annexin-V (Roche Diagnostics, France) diluted in 100 μl reaction buffer with 5 mM CaCl2. CaCl2 was omitted in negative controls. MP were analyzed on a Coulter EPICS XL flow cytometer (Beckman Coulter). MP were identified in forward light scatter (FSc) and side-angle light scatter (SSc) intensity dot plots set at logarithmic gain, as events of 0.1-1 μm in diameter. MP-size events were analyzed in FL/FSC fluorescence dot plots to determine annexin-V labeling. MP concentration was determined with respect to calibrated fluorescent microbeads (Flowcount). To determine erythrocyte origin, MP were double labeled with rat PE-Cy7-coupled mouse-specific anti-Ter119 antibody (Biolegend via Ozyme, France), or matched irrelevant IgG2bκ isotype.

SAD mouse erythrocytes = assay: Echinocyte conversion and MP shedding by isolated erythrocytes (LORCA ektacytometer, microscopy, FACS), SAD; format: cell-based; settings: for raise in MP shedding in SAD erythrocytes: peptides 25 μM, versus control peptides
Description: as §1, §2, §3

[2] = test system: SV40-transformed mouse lymph node endothelial cells (SVEC4-10); assay: Endothelial ROS production (H2DFF-DA assay); format: cell-based
Description: SV40-transformed mouse lymph node endothelial cells (SVEC4-10 from ATCC) were obtained from LGC Promochem, France and grown in Dulbecco's Modified Eagle Medium (DMEM) supplemented with 20% neonatal calf serum (NCS; Dominique Dutscher) in 24 well plaques at 37° C. with 5% CO2. Confluent SVEC monolayers in 96 well plates were incubated with 25 MP/μl for up to 2 h. To determine ROS production, 5-(6-)Carboxy-2′,7′-difluorodihydrofluorescein diacetate (H2DFF-DA; 10 μM), was supplemented to the medium for the last 30 minutes, and fluorescence was read in an automated fluorescence plate reader. For erythrocyte adhesion experiments, MP-primed SVEC monolayers were washed and incubated with RBC suspensions in DMEM (1.10^6 RBC/ml). Supernatant cells were discarded after 30 min, and adherent cells were counted by phase contrast microscopy in 5 random fields per well (400×). All conditions were tested 3 to 6 times, in triplicates. In cell cycle analysis, SVEC were cultured up to 70% confluency, washed and placed in DMEM with 0.05% NCS with or without RBC MP. After 16 hours, SVEC were trypsinized, fixed overnight in ice-cold 70% ethanol-H20, and incubated in 0.05% Triton X100, 100 μg/ml RNase A plus 50 μg/ml propidium iodide for 1 h in the dark. Total DNA content was determined by FACS. DNA profiles were divided as sub-G1 (apoptosis), G0/G1 (resting) and G2/M (proliferation) phases of the cell cycle. Data shown is the mean percentage of cells in each phase, in 3 to 6 independent experiments.

SAD mice = assay: Circulating PS+ MP in platelet-free plasma by FACS (annexin-V labeling), SAD mice; format: in vivo, mouse; settings: injected to mice, compared with whole TSP1
Description: We characterized the induction of VOC in SAD transgenic mice (18, 19) according to our previously published method, in response to the intravenous administration of TSP1 (1 mg/kg), TSP1-derived peptides 4N1-1 or 4N1-2, or purified erythrocyte MP. Briefly, mice were anesthetized with isoflurane and monitored to prevent any cardiorespiratory depression. Mice were shaved and placed in the decubitus position on a heating blanket (38° C.). We used a Vivid 7 echograph (GE Medical Systems®, Horten, Norway) equipped with a 12-MHz linear transducer (12 L). […] A pulsed Doppler spectrum was recorded and peak systolic, end-diastolic and time-average mean BFV were measured in the renal artery, with Doppler beam angle correction. To calculate cardiac output, spatial flow profiles were analyzed in parasternal long-axis B-mode images of the pulmonary artery and BFV were measured as above. […] Circulating MP were quantified by FACS.
Netherlands) in the absence or presence of TSP1 (25 μg/ml), or TSP1-derived peptides 4N1-1 or 4N1-2 (25 μM). […] Erythrocytes were immediately separated and supernatant PS^+ MP quantified by FACS. […] MP concentrations were determined as previously described (20). […] MP were analyzed on a Coulter EPICS XL flow cytometer (Beckman Coulter). […] MP-size events were analyzed in FL/FSC fluorescence dot plots to determine annexin-V labeling. […]

Mesenteric arteries = assay: Microvascular dilation of perfused mesenteric resistance arteries (pressure myograph); parameters: species or system mouse
Description: Mesenteric arteries were removed from terminally anesthetized mice and placed them in ice-cold physiological salt solution (PSS). 4-6 arterial segments from each mouse were used. A segment of mesenteric artery was cannulated and mounted in a video-monitored perfusion system as described (21). Arterial segments were bathed in a 5 ml organ bath containing a PSS maintained at pH 7.4, with pO2 and pCO2 of 160 mm Hg and 37 mm Hg, respectively. Arterial diameter was continuously recorded by video (Living System Instrumentation Inc., Burlington, Vt.). Pressure and flow rates could be changed independently. Diameter changes were measured in each segment when the intraluminal pressure was set at 75 mm Hg in order to measure dilation. Artery viability was tested with potassium-rich solution ([…]; PSS). The endothelium was considered functional when 80% relaxation was obtained with 10^−6 acetylcholine (ACH), after phenylephrine (PE)-induced preconstriction (50% of maximal contraction with KCl 80 mM). A cumulative concentration-response curve to ACH (10^−7-10^−4 M) was constructed after preconstriction. Sodium nitroprusside (SNP, 100 μM) was tested after the ACH curve. Intraluminal flow was then increased to 21 μl/minute and MP were injected in the vessel. A new cumulative concentration-response curve to ACH after was constructed after new PE-induced preconstriction. […]

SAD transgenic mice = assay: Vaso-occlusive crises in mice: renal artery blood flow velocity by Echo-Doppler, cardiac output, renal histology; format: in vivo, mouse; settings: SAD RBC MP pre-incubated with annexin-V and washed, 300.10^3 MP/mouse
Description: We characterized the induction of VOC in SAD transgenic mice (18, 19) according to our previously published method, in response to the intravenous administration of TSP1 (1 mg/kg), TSP1-derived peptides 4N1-1 or 4N1-2, or purified erythrocyte MP. Briefly, mice were anesthetized with isoflurane and monitored to prevent any cardiorespiratory depression. Mice were shaved and placed in the decubitus position on a heating blanket (38° C.). We used a Vivid 7 echograph (GE Medical Systems®, Horten, Norway) equipped with a 12-MHz linear transducer (12 L). The ultrasound probe was placed on the left side of the abdomen for examination of renal arteries, or in left lateral decubitus for cardiac output acquisition with transducer on the chest. Data were transferred on-line to an EchoPAC ultrasound image analysis workstation (GE Medical Systems®). Two-Dimensional ultrasound imaging of the abdomen in left-sided longitudinal B-mode allowed kidney width and height measurements. Color-coded blood flow detection by Doppler enabled renal arteries to be localized. A pulsed Doppler spectrum was recorded and peak systolic, end-diastolic and time-average mean BFV were measured in the renal artery, with Doppler beam angle correction. To calculate cardiac output, spatial flow profiles were analyzed in parasternal long-axis B-mode images of the pulmonary artery and BFV were measured as above. The following formula was applied: CO=[(V^mean·60)·(π·(Dpa/2^2)], where CO is the cardiac output in ml/minute, V^mean is the mean time-averaged BFV in cm/s and Dpa is the pulmonary artery diameter in cm. Kidney sizes and BFV were determined by the same investigator, as means of 5 to 8 measurements. Repeatability for cardiac output measurements was verified. We controlled and confirmed that kidney size was similar between SAD and wild type mice. After sacrifice, kidneys were dissected, dehydrated, mounted in paraffin, sectioned and stained by Masson trichrome. Vascular congestion was observed by phase-contrast microscopy, as large erythrocyte aggregates occluding kidney capillaries and larger vessels. In some experiments, TSP1 (1 mg/kg) or control BSA (1 mg/kg) were injected. After 5 minutes, mice were terminally anesthetized by pentobarbital overdose. Whole blood was collected through cardiac puncture, centrifuged (400 g, 15 minutes) to eliminate erythrocytes and leukocytes, and double centrifuged (12500 g, 5 minutes) to eliminate platelets with minimal activation. Supernatants were considered platelet-free plasma (PFP). Circulating MP were quantified by FACS.
We evaluated the concept that TSP1 influences VOC during SCD in vivo. We used SAD transgenic mice that express a mutated human hemoglobin β-chain known to cause sickle cell formation and sensitivity to VOC (18, 19).

[3] = endothelial NOS blocked, L-NAME 100 μM, enantiomer D-NAME as control
[4] = endothelial PKC activity inhibited, 1 μM
[5] = scanning electron microscopy, after peptide treatment

Molecule: 4N1-2: Synthetic truncated control peptide RFYVVM (SEQ ID NO:2) (4N1-2)
- increase in MP shedding in wild type erythrocytes [1]: no effect
- raise in MP shedding in SAD erythrocytes (SAD mouse erythrocytes): no effect

Molecule: COC(=O)[C@@H](N)CCCNC(=N)N[N+](=O)[O-] [L-NAME]
- ROS generation induced by SAD RBC MP [2, 3]: entirely inhibited

Molecule: 4NGG: Mutated control peptide RFYGGMWK (SEQ ID NO:3) devoid of the VVM motif (4NGG)
- increase in MP shedding in wild type erythrocytes [1]: no effect
- raise in MP shedding in SAD erythrocytes (SAD mouse erythrocytes): no effect

Molecule: c1ccc2c(c1)[I+]c1ccccc1-2 [DPI]
- ROS generation induced by SAD RBC MP ([2]; endothelial NADPH oxydase blocked, 10 μM, 30 minutes): prevented

Molecule: Cn1cc(C2=C(c3cn(CCCSC(=N)N)c4ccccc34)C(=O)NC2=O)c2ccccc21 [Ro-31-8220]
- ROS generation induced by SAD RBC MP [2, 4]: prevented

Molecule: Cn1c2ccccc2c2c3c(c4c5ccccc5n(CCC#N)c4c21)C(=O)NC3 [Gö-6976]
- ROS generation induced by SAD RBC MP [2, 4]: prevented

Molecule: 4N1-1: Synthetic TSP1 carboxyterminal peptide RFYVVMWK (SEQ ID NO:1), CD47 agonist (4N1-1)
- effects on circulating PS+ MP after injection of the peptide (SAD mice): comparable to whole TSP1
- echinocytosis: change in wild type echinocytes ([1]; peptide 25 μM): doubling
- spicule numbers in healthy wild type erythrocytes [1, 5]: not in healthy wild type erythrocytes
- effect on sickle cells (SAD mouse erythrocytes; SAD erythrocytes, TSP1 or peptide): did not affect sickle cells
- increase in spicule numbers in SAD RBC (SAD mouse erythrocytes; [5]): 20%
- increase in SAD echinocytes (SAD mouse erythrocytes; under shear, TSP1 (25 μg/ml) or peptide (25 μM), vs control): 50%

Molecule: CC1(C)CC(O)CC(C)(C)N1[O] [Tempol]
- effect alone on vessel diameter (Mesenteric arteries; Tempol alone, vs control): −5 % vessel diameter
- reduction of the deleterious effects of SAD RBC MP on vasodilation (Mesenteric arteries; vessel treated 10 μM, 30 minutes, vs MP alone): −50%

Molecule: COc1cc(C(C)=O)ccc1O [apocynin]
- ROS generation induced by SAD RBC MP ([2]; endothelial NADPH oxydase blocked, 100 μM, 30 minutes): prevented

Molecule: COC(=O)[C@H](N)CCCN=C(N)N[N+](=O)[O-] [D-NAME]
- ROS generation induced by SAD RBC MP [2, 3]: had no effects

B1: annexin-V: Recombinant protein that binds externalized phosphatidylserine in a calcium dependent manner (protein, UniProt P08758 2-320, looked up)
Annexin A5: AQVLRGTVTDFPGFDERADAETLRKAMKGLGTDEESILTLLTSRSNAQRQEISAAFKTLFGRDLLDDLKSELTGKFEKLIVALMKPSRLYDAYELKHALKGAGTNEKVLTEIIASRTPEELRAIKQVYEEEYGSSLEDDVVGDTSGYYQRMLVVLLQANRDPDAGIDEAQVEQDAQALFQAGELKWGTDEEKFITIFGTRSVSHLRKVFDKYMTISGFQIEETIDRETSGNLEQLLLAVVKSIRSIPAYLAETLYYAMKGAGTDDHTLIRVMVSRSEIDLFNIRKEFRKNFATSLYSMIKGDTSGDYKKALLLLCGEDD
- VOC parameters after injection of annexin-V-saturated SAD RBC MP (SAD transgenic mice): failed to modify VOC parameters
- VOC parameters after injection of annexin-V-saturated SAD RBC MP (SAD transgenic mice; listed as Annexin-V): abrogated the induction of VOC
- ROS generation induced by SAD RBC MP ([2]; MP PS previously saturated with recombinant annexin-V, 1 μg/ml for 1 hour): entirely inhibited; also recorded: prevented
